Measurements from patent US20030158254A1, “Engineering absorption of therapeutic compounds via colonic transporters” (XenoPort, Inc., priority 2002, published 2003).

What was measured:
Caco-2 cells = test: Caco-2 transport with and without PEPT1/PEPT2 inhibitor Lys(ε-Dansyl)-Leu; assay type: cell-based, human; conditions: apical to basolateral, 600 μM Lys(ε-Dansyl)-Leu, FIG. 2
Source text: Caco-2 cells are derived from the human colon and naturally express a number of colon-expressed transporters. The cells can be used to screen agents or conjugates for capacity to be transported by a colon expressed transporter. By screening agents or conjugates in the presence and absence of the specific PEPT1 and PEPT2 inhibitor Lys(ε-Dansyl)-Leu, one can determine whether PEPT1 and/or PEPT2 is a transporter mediating transport of the agent or conjugate. The role of PEPT1 and/or PEPT2 is shown by a decrease in transport in the presence of Lys(ε-Dansyl)-Leu.
1. Caco-2 cells are plated in either a 12 or 24 well Transwell plate and allowed to differentiate for 19-30 days prior to screening. Day 21 cells are optimal.
2. Dilutions of test compounds with or without Lys(ε-Dansyl)-Leu are prepared in assay buffer. pH 6.0
a. Concentrations of compounds are generally 1 mM with or without 600 μM Lys(Dansyl)-leucine.
b. 20 μM Propidium Iodide added as marker.
3. Spent media is aspirated from apical and basolateral chambers. To the apical chambers, 500 μL of test compound with or without Lys(ε-Dansyl)-Leu is added (125 μL for 24 well Transwell plates).
4. In the basolateral chambers, HBSS buffer pH 7.4 is added (1.5 mL for 12 well format, 875 μL for 24 well format).
5. At each timepoint, 50 μL is sampled from basolateral chambers and transferred to a LC/MS plate (Nunc, PP round bottom).
6. […]

hSMVT = biological target: T1, hSMVT (Homo sapiens, UniProt Q9Y289); test: Radiolabeled competition assay in SMVT-expressing CHO cells; assay type: cell-based; conditions: radiolabeled competition assay in SMVT-expressing CHO cells; read-out: IC50
T1 sequence (Q9Y289 1-635): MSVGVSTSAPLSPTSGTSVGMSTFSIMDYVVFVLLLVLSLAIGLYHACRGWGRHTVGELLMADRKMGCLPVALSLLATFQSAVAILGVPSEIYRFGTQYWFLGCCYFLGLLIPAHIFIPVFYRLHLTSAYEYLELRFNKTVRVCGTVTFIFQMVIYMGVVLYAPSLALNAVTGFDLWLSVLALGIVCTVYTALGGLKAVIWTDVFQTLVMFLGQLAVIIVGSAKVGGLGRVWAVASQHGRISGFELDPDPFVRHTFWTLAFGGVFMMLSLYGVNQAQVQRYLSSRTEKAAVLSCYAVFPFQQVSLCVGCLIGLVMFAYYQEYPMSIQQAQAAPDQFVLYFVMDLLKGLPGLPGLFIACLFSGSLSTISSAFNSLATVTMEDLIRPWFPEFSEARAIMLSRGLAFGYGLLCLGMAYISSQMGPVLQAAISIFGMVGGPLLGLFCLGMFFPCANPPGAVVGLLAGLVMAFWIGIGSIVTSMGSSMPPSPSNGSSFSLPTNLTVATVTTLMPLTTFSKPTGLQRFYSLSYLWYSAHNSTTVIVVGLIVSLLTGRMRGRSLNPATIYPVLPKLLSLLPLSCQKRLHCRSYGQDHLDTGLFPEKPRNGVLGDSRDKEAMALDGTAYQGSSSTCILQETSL
Source text: The complete open reading frame of human ATBO+(SLC6A14) and SMVT (SLC5A6) were amplified from human cDNA prepared from liver or intestine mRNA. […] Amplified PCR products were cloned into a modified version of the mammalian expression vector pcDNA3 (termed pMO) that was engineered to contain the 5′ and 3′ untranslated regions from the Xenopus beta-globin gene. All clones were completely sequenced and tested for function by transient transfection in HEK293 cells.
For cell uptake studies, stable CHOK1 clones were seeded into polylysine coated 96-well microtitre plates and grown for 2-3 days. Cells were incubated with experimental solutions (combinations of radiolabeled and unlabeled compounds) for 30 minutes at room temperature, washed four times, and lysed in scintillation solution. Accumulation of radiolabeled molecules was measured in a microtitre scintillation plate reader (Perkin Elmer). Inhibition constants (IC50s) were calculated using curve-fitting software (Prism).

Q: For CC(C)(N)C(=O)NCC1(CC(=O)O)CCCCC1 [Compound V, a-aminoisobutyryl gabapentin], which “Transport across Caco-2 cells in presence and absence of Lys(ε-Dansyl)-Leu” value (Caco-2 cells) is on record?
A: inhibited by Lys(ε-Dansyl)-Leu

Q: And the IC50 (hSMVT)?
A: 320 µM
